Reference: ChEMBL document CHEMBL2321673, “Critical role of a methyl group on the γ-lactone ring of annonaceous acetogenins in the potent inhibition of mitochondrial complex I” (Bioorg Med Chem Lett, 2013)

target: NADH-ubiquinone oxidoreductase chain 1 (Bos taurus, UniProt P03887); test: Inhibition of bovine heart mitochondrial complex 1
Sequence (P03887 whole entry): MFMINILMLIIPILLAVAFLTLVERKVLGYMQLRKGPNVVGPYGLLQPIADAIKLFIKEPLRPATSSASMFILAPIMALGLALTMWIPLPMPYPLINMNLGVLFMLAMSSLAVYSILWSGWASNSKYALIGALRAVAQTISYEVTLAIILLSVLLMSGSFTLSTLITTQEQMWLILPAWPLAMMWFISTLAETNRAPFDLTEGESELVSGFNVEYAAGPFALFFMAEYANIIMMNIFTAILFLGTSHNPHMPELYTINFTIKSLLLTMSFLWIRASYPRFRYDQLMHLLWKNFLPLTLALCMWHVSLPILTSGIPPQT

SMILES | IC50 [µM]
CCCCCCCCCCCC[C@@H](O)[C@H]1CC[C@H]([C@H](O)CCCCCCCCCCCCC2=C[C@H](CF)OC2=O)O1 | 0.0029
CCCCCCCCCCCC[C@@H](O)[C@H]1CC[C@H]([C@H](O)CCCCCCCCCCCCC2=C[C@H](C(F)F)OC2=O)O1 | 0.031
CCCCCCCCCCCC[C@@H](O)[C@H]1CC[C@H]([C@H](O)CCCCCCCCCCCCC2=C[C@H](C(F)(F)F)OC2=O)O1 | 0.31
CCCCCCCCCCCC[C@@H](O)[C@H]1CC[C@H]([C@H](O)CCCCCCCCCCCCC2=C[C@@H](C)OC2=O)O1 | 0.27
CCCCCCCCCCCC[C@@H](O)[C@H]1CC[C@H]([C@H](O)CCCCCCCCCCCCC2=C[C@@H](C(F)(F)F)OC2=O)O1 | 0.57
CCCCCCCCCCCC[C@@H](O)[C@H]1CC[C@H]([C@H](O)CCCCCCCCCCCCC2=C[C@H](C)OC2=O)O1 [REL-SOLAMIN] | 0.0021
